The source of these data is US9511070B2, “Heterocyclyl carboxamides for treating viral diseases” (NOVADRUG, LLC, priority 2012, dated 2016).

Molecules are shown by their SMILES.

One test has as its system JFH-1 HCV. As to conditions: relative to mock-treated HCV infected control; doses in μM. From the text:
In vitro assay for anti-HCV efficacy. HCV studies typically involve infected patients and chimpanzees. However, recently, a robust HCV infection system was developed with cells derived from the Huh-7 human hepatoma cell line. It is based on the unique JFH-1 HCV consensus cDNA derived from an HCV patient. Using reverse genetics, the infectious virus can be rescued from this HCV clone. The recovered viable JFH virus can be passaged serially in Huh-7 cells. For this reason, this system is amenable for evaluating the activity of test compound for their anti-HCV efficacy.
Briefly, 6×10^3 Huh7-1 cells are incubated overnight in each well of collagen-coated BioCoat 96-well plates (BD Biosciences, Bedford, Mass.) in 0.2 ml 10% medium composed of Dulbecco's modified Eagle's medium supplemented with 10% fetal bovine serum. Subsequently, at 2 day intervals, the cultures are replenished with fresh 0.2 ml 10% medium. After the cultures become confluent, they continue to be replenished at 2 day intervals with fresh 0.2 ml 10% medium that also includes 1% dimethyl sulfoxide (DMSO). After 20 days of these replenishments, the Huh7-1 cultures are incubated with fresh 1% medium (same as 10% medium except that the serum level is 1%) containing HCV at a multiplicity of infection (MOI) of 0.05 focus forming units (ffu)/cell. The HCV (JFH-lwt Huh7) stock titer is 1.5×10^5 ffu/mL. The next day (day 1 post-infection) and 2 days later (day 3 post-infection) the media are replenished with fresh 1% medium containing the test compounds dissolved in DMSO. On the 5th day of treatment with the compounds, cell lysates are collected for RNA isolation and Real Time-quantitative Reverse Transcription Polymerase Chain Reaction (RT-qPCR) and culture media are collected for cytotoxicity analysis.
Total RNA is isolated from cells by the guanidine thiocyanate method using standard protocols. One μg RNA is used for cDNA synthesis using TaqMan reverse transcription reagents (Applied Biosystems, Foster City, Calif.) followed by real-time PCR using an Applied Biosystems 7300 real-time thermocycler. Thermal cycling consists of initial denaturation of 10 min at 95° C. followed by 40 cycles of denaturation (15 s at 95° C.) and annealing/extension (1 m at 60° C.). HCV and human glyceraldehyde-3-phosphate dehydrogenase (GAPDH) RNA levels are determined relative to a standard curve of serial dilutions of plasmid containing JFH-1 HCV or GAPDH cDNA. The PCR primers used to detect GAPDH and HCV are: GAPDH (NMX002046) 5′-[…]-3′(SEQ ID NO: 16) (sense) and 5′-[…]-3′(SEQ ID NO: 17) (anti-sense) JFH-1 HCV (AB047639) 5′-[…]-3′(SEQ ID NO: 18) (sense) and 5′-[…]-3′(SEQ ID NO: 19) (anti-sense).
For `COc1cccc(-c2ccccc2NC(=O)C2CCN(Cc3cccc4cccnc34)CC2)c1` [Example 22], the “intracellular HCV RNA levels (FIGS. 1A, 1B, 1C)” value (from here on “intracellular HCV RNA levels”) is reported as “dose dependent decrease in HCV RNA levels”.
With `COc1cccc(-c2ccccc2NC(=O)C2CCN(Cc3cc(C)c(O)c(C)c3)CC2)c1` [Example 24], the “intracellular HCV RNA levels” value is “dose dependent decrease in HCV RNA levels”.
With `O=C(Nc1ccc(Oc2ccccc2F)cc1)C1CCN(Cc2cccc3c2OCO3)CC1` [Example 28], the “intracellular HCV RNA levels” value was “dose dependent decrease in HCV RNA levels”.

The test is the same for the next values; noted with them: viral titer at 5 μM or 15 μM compared to untreated control.
On to `COc1cc(CN2CCC(C(=O)Nc3ccc(-c4cccc(C)c4)cc3)CC2)ccc1O` [Example 17], for which the “HCV Antiviral Activity” value is listed as “+ (“+” corresponds to ≦60% viral titer at 15 μM)”.
Same read-out and setting: as for `COc1ccc(CN2CCC(C(=O)Nc3ccc(Oc4ccccc4F)cc3)CC2)c(O)c1` [Example 21], the entry is “+++ (“+++” corresponds to ≦30% viral titer at 5 μM)”; as for `COc1cccc(-c2ccccc2NC(=O)C2CCN(Cc3cccc4cccnc34)CC2)c1` [Example 22], “+++ (“+++” corresponds to ≦30% viral titer at 5 μM)”; as for `COc1ccccc1CN1CCC(C(=O)Nc2ccc(-c3nc4ccccc4[nH]3)cc2)CC1` [Example 23], “+++ (“+++” corresponds to ≦30% viral titer at 5 μM)”.
With `COc1cccc(-c2ccccc2NC(=O)C2CCN(Cc3cc(C)c(O)c(C)c3)CC2)c1` [Example 24], the “HCV Antiviral Activity” value is recorded as “+++ (“+++” corresponds to ≦30% viral titer at 5 μM)”.
Take `COc1cccc(-c2ccccc2NC(=O)C2CCN(Cc3ccccc3OC)CC2)c1` [Example 25]: the “HCV Antiviral Activity” value is “++ (“++” corresponds to ≦60% viral titer at 5 μM)”.
Take `O=C(Nc1cccc(-c2cccc(F)c2)c1)C1CCN(Cc2ccc(O)cc2)CC1` [Example 26]: the “HCV Antiviral Activity” value was “++ (“++” corresponds to ≦60% viral titer at 5 μM)”.
Regarding `CCCCc1nc(CN2CCC(C(=O)Nc3cccc(-c4cccc(F)c4)c3)CC2)c[nH]1` [Example 27], the “HCV Antiviral Activity” value is recorded as “++ (“++” corresponds to ≦60% viral titer at 5 μM)”.
Consider `O=C(Nc1ccc(Oc2ccccc2F)cc1)C1CCN(Cc2cccc3c2OCO3)CC1` [Example 28], for which the “HCV Antiviral Activity” value is recorded as “++ (“++” corresponds to ≦60% viral titer at 5 μM)”.
As for `O=C(Nc1cccc(-c2cccc(F)c2)c1)C1CCN(Cc2cccc(O)c2)CC1` [Example 29], the “HCV Antiviral Activity” value is recorded as “+ (“+” corresponds to ≦60% viral titer at 15 μM)”.
With `COc1cccc(O)c1CN1CCC(C(=O)Nc2cccc(-c3cccc(F)c3)c2)CC1` [Example 30], the “HCV Antiviral Activity” value was “+ (“+” corresponds to ≦60% viral titer at 15 μM)”.
Take `O=C(Nc1cccc(-c2cccc(Cl)c2)c1)C1CCN(Cc2ccc(O)cc2)CC1` [Example 31]: the “HCV Antiviral Activity” value is “+ (“+” corresponds to ≦60% viral titer at 15 μM)”.
`COc1cccc(-c2ccccc2NC(=O)C2CCN(Cc3ccc(OC)c(C)c3)CC2)c1` [Example 32]: the “HCV Antiviral Activity” value is reported as “+ (“+” corresponds to ≦60% viral titer at 15 μM)”.
Regarding `COc1cccc(CN2CCC(C(=O)Nc3ccccc3-c3cccc(OC)c3)CC2)c1` [Example 33], the “HCV Antiviral Activity” value is given as “+ (“+” corresponds to ≦60% viral titer at 15 μM)”.
As for `COc1cccc(-c2ccccc2NC(=O)C2CCN(Cc3ccc(F)cc3OC)CC2)c1` [Example 34], the “HCV Antiviral Activity” value is listed as “+ (“+” corresponds to ≦60% viral titer at 15 μM)”.
Still for that read-out and setting: in the case of `O=C(Nc1cccc(-c2cscn2)c1)C1CCN(Cc2cccc(-c3ccco3)c2)CC1` [Example 35] it was “+ (“+” corresponds to ≦60% viral titer at 15 μM)”.
On the same count and under the same terms, as for `COc1cccc(-c2ccccc2NC(=O)C2CCN(CCC(C)c3ccccc3)CC2)c1` (stereo not shown) [Example 36], the entry is “+ (“+” corresponds to ≦60% viral titer at 15 μM)”.
Still for that read-out and setting: in the case of `CC(C)n1cc(CN2CCC(C(=O)Nc3cccc(-c4cc5ccccc5[nH]4)c3)CC2)cn1` [Example 38] it was “+ (“+” corresponds to ≦60% viral titer at 15 μM)”.
Take `COc1cccc(-c2ccccc2NC(=O)C2CCN(CC(C)(C)C)CC2)c1` [Example 39]: the “HCV Antiviral Activity” value is “+ (“+” corresponds to ≦60% viral titer at 15 μM)”.
For the compound `O=C(Nc1cccc(-c2ccco2)c1)C1CCN(Cc2cccc3cccnc23)CC1` [Example 40], the “HCV Antiviral Activity” value is reported as “+ (“+” corresponds to ≦60% viral titer at 15 μM)”.
On the same count and under the same terms, as for `Cc1nnc(-c2cccc(NC(=O)C3CCN(C(=O)c4ccco4)CC3)c2)s1` [Example 41], the entry is “+ (“+” corresponds to ≦60% viral titer at 15 μM)”; as for `COc1cc(CN2CCC(C(=O)Nc3cccc(-c4cccc(Cl)c4)c3)CC2)ccc1O` [Example 42], “+ (“+” corresponds to ≦60% viral titer at 15 μM)”; as for `O=C(Nc1cccc(-c2ccn[nH]2)c1)C1CCN(Cc2cccc3ccccc23)CC1` [Example 43], “− (“−” corresponds to >60% viral titer at 15 μM (highest concentration tested))”.
In the case of `Cc1ccc(CN2CCC(C(=O)Nc3cccc(-c4cc5ccccc5[nH]4)c3)CC2)o1` [Example 45], the “HCV Antiviral Activity” value is “− (“−” corresponds to >60% viral titer at 15 μM (highest concentration tested))”.
Take `CSCCCN1CCC(C(=O)Nc2cccc(-c3cc4ccccc4[nH]3)c2)CC1` [Example 46]: the “HCV Antiviral Activity” value is listed as “− (“−” corresponds to >60% viral titer at 15 μM (highest concentration tested))”.
The same measure, in the same setting: as for `O=C(Nc1ccc(-c2nc3ccccc3[nH]2)cc1)C1CCN(Cc2cc3ccccc3[nH]2)CC1` [Example 47], the entry is “− (“−” corresponds to >60% viral titer at 15 μM (highest concentration tested))”; as for `CCOc1ccc(CN2CCC(C(=O)Nc3ccccc3-c3cccc(OC)c3)CC2)cc1` [Example 48], “− (“−” corresponds to >60% viral titer at 15 μM (highest concentration tested))”.
`O=C(Nc1cccc(-c2ccco2)c1)C1CCN(Cc2nc3ccc(F)cc3[nH]2)CC1` [Example 49]: the “HCV Antiviral Activity” value is given as “− (“−” corresponds to >60% viral titer at 15 μM (highest concentration tested))”.
Same read-out and setting: in the case of `O=C(Nc1cccc(-c2cccc(Cl)c2)c1)C1CCN(Cc2cccc(O)c2)CC1` [Example 50] it was “− (“−” corresponds to >60% viral titer at 15 μM (highest concentration tested))”.
`O=C(Nc1cccc(-c2cscn2)c1)C1CCN(C/C=C/c2ccc(F)cc2)CC1` [Example 52]: the “HCV Antiviral Activity” value is “− (“−” corresponds to >60% viral titer at 15 μM (highest concentration tested))”.
The same measure, in the same setting: in the case of `O=C(Nc1cccc(-c2ccco2)c1)C1CCN(C(=O)CCc2ccco2)CC1` [Example 53] it was “− (“−” corresponds to >60% viral titer at 15 μM (highest concentration tested))”.
As for `O=C(Nc1cccc(-c2ccco2)c1)C1CCN(C(=O)c2n[nH]c3c2CCC3)CC1` [Example 54], the “HCV Antiviral Activity” value was “− (“−” corresponds to >60% viral titer at 15 μM (highest concentration tested))”.
In the case of `COc1ccc(/C=C/CN2CCC(C(=O)Nc3cccc(-c4ccco4)c3)CC2)cc1` [Example 55], the “HCV Antiviral Activity” value is reported as “− (“−” corresponds to >60% viral titer at 15 μM (highest concentration tested))”.
Turning to `O=C(Nc1cccc(-c2cccc(F)c2)c1)C1CCN(Cc2cccc3c2OCO3)CC1` [Example 56], the “HCV Antiviral Activity” value is recorded as “− (“−” corresponds to >60% viral titer at 15 μM (highest concentration tested))”.
In the case of `COc1cccc(CN2CCC(C(=O)Nc3ccc(Oc4ccccc4F)cc3)CC2)c1O` [Example 61], the “HCV Antiviral Activity” value was “++ (“++” corresponds to ≦60% viral titer at 5 μM)”.
Same read-out and setting: as for `COc1cccc(-c2ccccc2NC(=O)C2CCN(Cc3cccc(OC)c3O)CC2)c1` [Example 62], the entry is “++ (“++” corresponds to ≦60% viral titer at 5 μM)”; as for `COc1cccc(CN2CCC(C(=O)Nc3cccc(-c4cccc(Cl)c4)c3)CC2)c1O` [Example 63], “++ (“++” corresponds to ≦60% viral titer at 5 μM)”.
